The values that follow come from patent US8076324B2, “Di(hetero)arylcyclohexane derivatives, their preparation, their use and pharmaceutical compositions comprising them” (Sanofi-Aventis, priority 2007, dated 2011).

The target of this assay is T1, myocardial ATP-sensitive potassium channel (SUR2A/Kir6.2) (UniProt Q61743+Q63563).
T1 construct: expressed in transfected cells
Briefly: Rubidium efflux test on HEK293 cells transfected with SUR2A and Kir6.2 (myocardial action). In kind it is cell-based, SUR2A from the rat, Kir6.2 from the mouse. To be noted: HEK293 cells transfected with SUR2A/Kir6.2; KATP channels opened by rilmakalim; 25 min incubation; read-out: IC50 values for the inhibition of the rubidium efflux. Here is the method:
1) Action on the SUR2A/Kir6.2 potassium channel (myocardial action) The action of the compounds on the ion transport through the myocardial ATP-sensitive potassium channel (SUR2A/Kir6.2) was determined in the rubidium efflux test system described below on human embryonic kidney cells HEK293 which were transfected with the components SUR2A and Kir6.2 (cf. Weyermann et al., Naunyn-Schmiedeberg's Arch. Pharmacol. 369, 374-381 (2004)).
The HEK293 cells were cultured at 37° C. in a humidified air atmosphere with 7% carbon dioxide in minimal essential medium with Earle's salts and L-glutamine (MEM, Gibco), which was supplemented with 10% fetal calf serum and zeozin (0.36 mg/ml) and geneticin (0.75 mg/ml). The transfection of the cells and the preparation of a cell line with stable expression of Kir6.2 from the mouse (accession number AF037313) and SUR2A from the rat (accession number D83598/L40624) were carried out as described in Giblin et al., J. Biol. Chem. 274, 22652-22659 (1999).
60 000 transfected cells per well were inoculated into a poly-D-lysine-coated 96-well microtiter plate (Greiner #650 201). After incubation for 24 h at 37° C., the cells were washed three times with buffer 1 (150 mM NaCl, 2 mM CaCl2, 0.8 mM NaH2PO4, 1 mM MgCl2, 5 mM glucose, 25 mM HEPES, pH=7.4). Subsequently, the buffer solution was replaced by 100 μl of rubidium loading buffer (buffer 1 with 5.4 mM RbCl) and the cells were incubated for a further 3 h at 37° C. The rubidium loading buffer was then removed by washing the cells three times with 200 μl each of potassium chloride wash buffer (buffer 1 with 5.4 mM KCl). After addition of the test substances (70 μl; dissolved in potassium chloride wash buffer with addition of DMSO), the KATP channels of the cells were opened by addition of 70 μl of rilmakalim (2 μM) (cf. Krause et al., Pflügers Arch. 429, 625-635 (1995)) and the cells were incubated at 37° C. for 25 min. Subsequently, the cell supernatants were transferred to a new 96-well microtiter plate and the cells were lyzed by addition of 200 μl of lysis buffer (buffer 1 with 1% Triton X-100). The concentrations of Rb^+ in the cell supernatant and in the cell lyzate were measured by means of atomic absorption spectroscopy using an Al 1200 apparatus (Aurora Instruments Ltd.).
The Rb^+ efflux rate was calculated as [Rb^+SN]/[Rb^+total], wherein [Rb^+SN] is the amount of Rb^+ in the cell supernatant and [Rb^+total] is the sum of the amounts of Rb^+ in the cell supernatant and cell lyzate. IC50 values for the inhibition of the rubidium efflux were calculated with the aid of the Hill equation.

Some results are limits rather than exact numbers.

T1 sequence (Q63563 whole entry): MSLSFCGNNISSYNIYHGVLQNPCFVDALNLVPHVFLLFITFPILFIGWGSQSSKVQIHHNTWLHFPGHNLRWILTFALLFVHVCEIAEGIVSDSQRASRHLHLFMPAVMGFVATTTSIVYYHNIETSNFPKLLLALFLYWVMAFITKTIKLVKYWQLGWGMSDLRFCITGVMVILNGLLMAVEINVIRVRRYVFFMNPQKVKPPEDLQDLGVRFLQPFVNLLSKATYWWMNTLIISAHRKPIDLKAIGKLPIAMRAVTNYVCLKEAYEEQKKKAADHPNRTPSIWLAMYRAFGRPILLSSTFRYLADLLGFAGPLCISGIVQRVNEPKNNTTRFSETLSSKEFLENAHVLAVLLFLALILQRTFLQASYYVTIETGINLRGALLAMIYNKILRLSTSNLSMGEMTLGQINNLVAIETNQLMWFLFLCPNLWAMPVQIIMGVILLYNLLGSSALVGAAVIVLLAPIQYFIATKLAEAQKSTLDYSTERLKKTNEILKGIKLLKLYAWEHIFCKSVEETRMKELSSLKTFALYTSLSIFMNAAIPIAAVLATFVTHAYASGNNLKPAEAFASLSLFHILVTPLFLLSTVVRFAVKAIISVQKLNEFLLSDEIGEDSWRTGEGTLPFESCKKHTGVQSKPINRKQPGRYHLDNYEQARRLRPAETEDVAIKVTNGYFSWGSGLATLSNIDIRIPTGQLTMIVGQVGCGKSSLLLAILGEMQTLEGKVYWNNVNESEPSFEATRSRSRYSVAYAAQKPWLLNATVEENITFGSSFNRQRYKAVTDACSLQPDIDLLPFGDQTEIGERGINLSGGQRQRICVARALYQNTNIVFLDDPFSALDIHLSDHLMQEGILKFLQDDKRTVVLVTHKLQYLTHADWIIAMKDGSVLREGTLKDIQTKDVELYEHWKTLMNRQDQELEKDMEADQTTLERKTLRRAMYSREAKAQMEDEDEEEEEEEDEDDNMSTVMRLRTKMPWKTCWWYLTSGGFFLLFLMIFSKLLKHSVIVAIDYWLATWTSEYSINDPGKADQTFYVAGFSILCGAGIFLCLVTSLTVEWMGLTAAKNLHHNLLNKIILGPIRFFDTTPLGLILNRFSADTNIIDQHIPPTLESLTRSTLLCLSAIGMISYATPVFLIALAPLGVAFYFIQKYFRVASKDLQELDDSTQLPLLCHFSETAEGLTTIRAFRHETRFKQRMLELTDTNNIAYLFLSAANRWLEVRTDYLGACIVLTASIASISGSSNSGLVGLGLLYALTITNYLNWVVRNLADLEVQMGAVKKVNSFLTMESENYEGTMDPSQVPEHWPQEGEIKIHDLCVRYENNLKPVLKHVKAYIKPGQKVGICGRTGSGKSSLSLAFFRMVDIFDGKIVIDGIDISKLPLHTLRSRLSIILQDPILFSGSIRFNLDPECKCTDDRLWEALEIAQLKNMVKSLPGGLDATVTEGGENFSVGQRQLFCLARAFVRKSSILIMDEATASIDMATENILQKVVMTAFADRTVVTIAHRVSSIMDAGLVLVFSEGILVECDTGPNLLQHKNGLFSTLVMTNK
T1 sequence (Q61743 whole entry): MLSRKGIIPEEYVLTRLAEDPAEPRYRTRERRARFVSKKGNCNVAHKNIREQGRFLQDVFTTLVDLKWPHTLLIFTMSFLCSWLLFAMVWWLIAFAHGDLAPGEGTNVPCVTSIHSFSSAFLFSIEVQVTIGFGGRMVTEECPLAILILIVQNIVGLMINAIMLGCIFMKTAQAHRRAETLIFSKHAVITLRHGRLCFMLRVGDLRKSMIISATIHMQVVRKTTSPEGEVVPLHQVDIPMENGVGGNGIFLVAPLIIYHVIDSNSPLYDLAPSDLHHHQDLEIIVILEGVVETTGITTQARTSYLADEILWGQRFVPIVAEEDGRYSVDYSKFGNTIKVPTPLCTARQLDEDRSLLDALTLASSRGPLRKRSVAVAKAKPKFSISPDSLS

One may read the IC50 as the concentration that gives 50% inhibition. Consider `CCCOC1(c2ccc(F)cc2)CCC(C(=O)O)(c2ccccc2)CC1` (centres unmarked) [Example 148], for which the IC50 is less than 1 µM.
Under `CC(C)c1nc([C@]2(OCC3CC3)CC[C@](C(=O)O)(c3ccccc3)CC2)n(CC2CC2)c1Cl` [Example 394] stands less than 1 µM; under `O=C(O)[C@]1(c2ccccc2)CC[C@](OCC2CC2)(c2ccnc(-c3ccccc3)c2)CC1` [Example 489, Trans-4-Cyclopropylmethoxy-1-phenyl-4-(2-phenylpyridin-4-yl)cyclohexanecarboxylic Acid], less than 1 µM.
Consider `O=C(O)[C@]1(c2ccccc2)CC[C@](OCC2CC2)(c2nc(C(F)(F)F)cn2CC2CC2)CC1` [Example 381], for which the IC50 was less than 1 µM.
Under `O=C(O)C1(c2ccccc2)CCC(OCC2CC2)(c2cccc(C3CC3)c2)CC1` (centres unmarked) [Example 182, 4-Cyclopropylmethoxy-4-(3-cyclopropylphenyl)-1-phenylcyclohexanecarboxylic Acid] stands less than 1 µM; under `CCOC1(c2ccc(F)cc2)CCC(C(=O)O)(c2ccccc2)CC1` (centres unmarked) [Example 141], less than 1 µM.
As for `COC1(c2cccc(F)c2)CCC(C(=O)O)(c2ccccc2)CC1` (centres unmarked) [Example 119], the figure is less than 1 µM.
As for `CC(C)S(=O)(=O)c1cc(F)cc([C@]2(OCC3CC3)CC[C@](C(=O)O)(c3ccc(F)cc3)CC2)c1` [Example 304-1, Cis-4-Cyclopropylmethoxy-1-(4-fluorophenyl)-4-[3-fluoro-5-(propane-2-sulfonyl)phenyl]cyclohexanecarboxylic Acid], the figure is less than 1 µM.
For `CCCn1c(Cl)c(C)nc1[C@]1(OCCOC)CC[C@](C(=O)O)(c2ccccc2)CC1` [Example 390], the IC50 is less than 1 µM.
With `CCCOC1(c2cc(F)ccc2SC)CCC(C(=O)O)(c2ccc(F)cc2)CC1` (centres unmarked) [Example 248], the IC50 is less than 1 µM.
As for `O=C(O)C1(c2ccccc2)CCC(O)(c2c(F)cc(F)cc2F)CC1` (centres unmarked) [Example 98], the figure is less than 1 µM.
In the case of `Cc1nc([C@]2(OCC3CC3)CC[C@](C(=O)O)(c3cccc(OC(F)(F)F)c3)CC2)n(CC2CC2)c1Cl` [Example 409], the IC50 was less than 1 µM.
Under `O=C(O)[C@]1(c2ccccc2)CC[C@](OCC2CC2)(c2nc3cc(Cl)ccc3n2CC2CC2)CC1` [Example 451] stands less than 1 µM; under `CS(=O)(=O)c1ccccc1C1(OCC2CC2)CCC(C(=O)O)(c2ccc(F)cc2)CC1` (centres unmarked) [Example 254], less than 1 µM; under `COC1(c2cccc(C(F)(F)F)c2)CCC(C(=O)O)(c2ccccc2)CC1` (centres unmarked) [Example 125], less than 1 µM.
In the case of `O=C(O)[C@]1(c2ccccc2)CC[C@](OCC2CC2)(c2nc3cc(F)ccc3n2CC2CC2)CC1` [Example 453], the IC50 was less than 1 µM.
As for `O=C(O)[C@]1(c2ccccc2)CC[C@](OCC2CC2)(c2ncc(C(F)(F)F)n2CC2CC2)CC1` [Example 379], the IC50 is less than 1 µM.
With `CCCn1c(Cl)c(C)nc1[C@]1(OCCC(C)(C)C)CC[C@](C(=O)O)(c2ccccc2)CC1` [Example 389], the IC50 is less than 1 µM.
As for `CSc1ccc(F)cc1C1(OCC2CC2)CCC(C(=O)O)(c2ccc(F)cc2)CC1` (centres unmarked) [Example 247], the figure is less than 1 µM.
Under `COC1(c2cnc3ccccc3c2)CCC(C(=O)O)(c2ccccc2)CC1` (centres unmarked) [Example 136] stands less than 1 µM; under `COC1(c2ccc(C(F)(F)F)cc2)CCC(C(=O)O)(c2ccccc2)CC1` (centres unmarked) [Example 124], less than 1 µM.
As for `CC(C)(C)c1nc([C@]2(OCC3CC3)CC[C@](C(=O)O)(c3ccccc3)CC2)n(CC2CC2)c1Cl` [Example 393], the figure is less than 1 µM; as for `O=C(O)[C@]1(c2ccccc2)CC[C@@](OCC2CC2)(c2ccnc(-c3ccccc3)c2)CC1` [Example 488, Cis-4-Cyclopropylmethoxy-1-phenyl-4-(2-phenylpyridin-4-yl)cyclohexanecarboxylic Acid], less than 1 µM; as for `CSc1ccc(C2(O)CCC(C(=O)O)(c3ccccc3)CC2)cc1` (centres unmarked) [Example 161, 4-Hydroxy-4-(4-methylsulfanylphenyl)-1-phenylcyclohexanecarboxylic Acid], less than 1 µM.
Consider `O=C(O)[C@]1(c2ccc(F)cc2)CC[C@](Oc2ccccc2)(c2nc3ccccc3n2CC2CC2)CC1` [Example 406], for which the IC50 was less than 1 µM.
Regarding `O=C(O)[C@]1(c2ccccc2)CC[C@@](OCC2(c3ccccc3)COC2)(c2ccc(F)cc2)CC1` [Example 499, 4-(4-Fluorophenyl)-1-phenyl-4-(3-phenyloxetan-3-ylmethoxy)cyclohexanecarboxylic Acid], the IC50 is less than 1 µM.
As to `COC1(c2ccc(Cl)cn2)CCC(C(=O)O)(c2ccccc2)CC1` (centres unmarked) [Example 137], the IC50 is less than 1 µM.
Under `Cc1cn(CC2CC2)c([C@]2(OCC3CC3)CC[C@](C(=O)O)(c3ccc(F)cc3)CC2)n1` [Example 368] stands less than 1 µM; under `Cc1nc([C@]2(OCC3CC3)CC[C@](C(=O)O)(c3cccnc3)CC2)n(CC2CC2)c1Cl` [Example 407], less than 1 µM.
As for `COC1(c2ccc(F)cc2)CCC(C(=O)O)(c2cccc(OC(F)(F)F)c2)CC1` (centres unmarked) [Example 237], the figure is less than 1 µM.
As for `CC(C)(C)S(=O)(=O)c1cc(F)cc([C@]2(OCC3CC3)CC[C@](C(=O)O)(c3ccc(F)cc3)CC2)c1` [Example 304-3, Cis-4-Cyclopropylmethoxy-4-[3-fluoro-5-(2-methylpropane-2-sulfonyl)phenyl]-1-(4-fluorophenyl)cyclohexanecarboxylic Acid], the figure is less than 1 µM; as for `O=C(O)C1(c2ccccc2)CCC(O)(c2ccc(F)cc2F)CC1` (centres unmarked) [Example 95], less than 1 µM; as for `O=C(O)[C@]1(c2ccccc2)CC[C@@](OCC2CC2)(c2nc3cccnc3n2CC2CC2)CC1` [Example 448], less than 1 µM.
Take `C=Cc1ccccc1C1(OC)CCC(C(=O)O)(c2ccccc2)CC1` (centres unmarked) [Example 135]: the IC50 was less than 1 µM.
As for `O=C(O)[C@]1(c2ccccc2)CC[C@](OCC2CC2)(c2nccn2CC2CC2)CC1` [Example 493, Trans-Cyclopropylmethoxy-4-(1-cyclopropylmethyl-1H-imidazol-2-yl)-1-phenylcyclohexanecarboxylic Acid], the figure is less than 1 µM; as for `Cc1c(Br)nc([C@]2(OCC3CC3)CC[C@](C(=O)O)(c3ccccc3)CC2)n1CC1CC1` [Example 373], less than 1 µM; as for `Cc1nc([C@]2(OCC3CC3)CC[C@@](C(=O)O)(c3ccc(F)cc3)CC2)n(CC2CC2)c1Br` [Example 369], less than 1 µM.
Regarding `O=C(O)[C@]1(c2ccccc2)CC[C@@](OCC2(c3ccccc3)COC2)(c2nccn2CC2CC2)CC1` [Example 497, 4-(1-Cyclopropylmethyl-1H-imidazol-2-yl)-1-phenyl-4-(3-phenyloxetan-3-ylmethoxy)cyclohexanecarboxylic Acid], the IC50 was less than 1 µM.
As for `Cc1nc([C@]2(OCCC(C)C)CC[C@](C(=O)O)(c3ccccc3)CC2)n(CC2CC2)c1C` [Example 376], the figure is less than 1 µM; as for `O=C(O)C1(c2ccccc2)CCC(O)(c2ccc(F)cc2)CC1` (centres unmarked) [Example 93], less than 1 µM.
Under `O=C(O)C1(c2ccccc2)CCC(O)(c2ccc(Cl)c(C(F)(F)F)c2)CC1` (centres unmarked) [Example 104] stands less than 1 µM; under `O=C(O)C1(c2ccc(F)cc2)CCC(OCC2CC2)(c2ccc(F)cc2)CC1` (centres unmarked) [Example 249], less than 1 µM.
As for `O=C(O)C1(c2ccccc2)CCC(OCC2CC2)(c2ccc(-c3ccc(F)c(Br)c3)cc2)CC1` (centres unmarked) [Example 275], the IC50 was less than 1 µM.
Under `Cc1nc([C@]2(OCC3CC3)CC[C@](C(=O)O)(c3ccc(OC(F)(F)F)cc3)CC2)n(CC2CC2)c1Cl` [Example 410] stands less than 1 µM.
Under `O=C(O)C1(c2ccccc2)CCC(O)(c2ccc(C(F)(F)F)cc2F)CC1` (centres unmarked) [Example 103] stands less than 1 µM; under `COC1(c2ccc(C)c(F)c2)CCC(C(=O)O)(c2ccccc2)CC1` (centres unmarked) [Example 123], less than 1 µM.
Consider `O=C(O)[C@]1(c2ccccc2)CC[C@@](OCC2CC2)(c2cc(-c3ccccc3)ccn2)CC1` [Example 485, Cis-4-Cyclopropylmethoxy-1-phenyl-4-(4-phenylpyridin-2-yl)cyclohexanecarboxylic Acid], for which the IC50 was less than 1 µM.
